Values joined by “and” are separate entries in the source; they are usually repeats but may differ in a detail not shown here. Equal values may be shown once.
Columns and labels:
[1] = tested on: IFNAR1 cell surface levels in MCF10A BRCC45 WT cells; assay: MCF10A BRCC45 WT IFNAR1 cell surface levels (FACS); type: cell-based, human; settings: for IFNAR1 cell surface levels (Fig. 5g): BRCC45 KO + BRCC45 WT, IFN + compound, No IFN about 100; for IFNAR1 cell surface levels: BRCC45 WT cells, IFN 50 ng/ml, 5 μM, 90 min
Experimental: To study the direct effect of BRISC DUB inhibitors, IFNAR1 surface levels were measured using flow cytometry (FACS) analysis. For this purpose, MCF10A WT and MCF10A BRCC45 KO cells expressing […]
BRCC45 WT or BRCC45 R137A were used. […]
minutes prior to the addition of 50 ng/mL of hIFN-Iα for various time points (45 minutes and 90 minutes).
After IFN treatment, cells were dissociated from plate using cell dissociation Buffer (ThermoFisher Scientific, #13150016) and were stained with LIVE/DEAD™ Fixable Violet Dead Cell Stain Kit, for 405 nm excitation (ThermoFisher Scientific, #L34963) for 30 minutes, as per the kit protocol. The cells were then washed using FACS buffer (DPBS, 1% BSA, 2 mM EDTA, 0.09% sodium azide) and transferred to 96-well round bottom plates. Resuspended cells were divided into three repeats for each sample, each was surface stained for 1 hour at 4 °C with: 1. Human IFN-alpha/beta R1 Antibody (R&D systems, #MAB245), 2. Mouse IgG1 Isotype Control (R&D systems, #MAB002), 3. FACS buffer (control cells).
Following incubation, cells were washed once with FACS buffer and were labelled for 30 minutes at 4 °C with either Biotin-SP-conjugated AffiniPure Donkey Anti-Mouse IgG (H+L) (Jackson Immunoresearch Laboratories) for samples 1 and 2 or with FACS buffer for sample 3. Cells were washed twice with FACS buffer and were labelled for 15 minutes at 4 °C with either R-Phycoerythrin-conjugated Streptavidin (Jackson Immunoresearch Laboratories) for samples 1 and 2 or with FACS buffer for sample 3. Cells were washed 3 times with FACS buffer and were analysed by FACS (MACSQuant, Miltenyi Biotec). For each sample from group 1 the Geo mean fluorescence intensity (MFI) of its isotype sample was reduced. IFNAR1 cell surface percentage was calculated by 100*(MFI

[2] = tested on: IFNAR1 ubiquitylation in MCF10A cells; assay: TUBE pull-down of ubiquitylated IFNAR1 in MCF10A cells; type: cell-based, human; design: Blot Mean, Background substracted: unit not given here; settings: for IFNAR1 ubiquitylation: MCF10A, IFNα2 50 ng/mL, 5 µM, compared to DMSO, AP-5-145 and FX-171-A
Experimental: Tandem ubiquitin binding entity (TUBE) pull -down assay
The TUBE pull -down experiment was performed according to the manufacturer’s (UM401: TUBE 1 Agarose; LifeSensors) protocol with modifications. MCF10A cells (~20 x10 6) were pre -treated with the […] inhibitor panel (5 µM) or DMSO vehicle control for 1 hour followed by addition of recombinant IFNα2 (50 ng/m L, 592702, BioLegend). Following 1 hour incubation with IFNα2, cells were lysed in cell lysis buffer (50 mM Tris -HCl, pH 7.5, 0.15 M NaCl, 1 mM EDTA, 1% NP -40, 10% glycerol, 10 mM […]
NEM). Cell lysates were clarified by centrifugation at 15,000 g for 10 minutes at 4 °C. Clarified lysates were pre-cleared with control uncoupled agarose beads (UM400, LifeSensors) for 30 minutes on a rotator at 4 °C followed by centrifugation at 5,000 g for 2 minutes. Equal amount of pre-cleared lysates from individual samples were incubated with 20 µL Agarose-TUBE beads (pre-equilibrated with 1X Tris-buffered saline (TBS)) overnight on a rotator at 4 °C. Beads were collected by centrifugation at 5,000 g for 2 minutes at RT followed by four stringent washes with 1X TBST (TBS, 0.1% Tween-20). TUBE-pulldown proteins were eluted by boiling Agarose-TUBE beads in 2X LDS sample buffer supplemented with […] DTT for 15 minutes. Eluted proteins were resolved on NuPAGE™ 4–12% Bis–Tris gel followed by Western blotting using anti-IFNAR1 antibody (ab124764, Abcam).
PBMCs in vitro experiments
Peripheral blood mononuclear cells (PBMCs) from healthy and SSc donors were separated using density gradient method (Leucosep™, Greiner Bio-One International) from EDTA anticoagulated peripheral blood; isolated cells were washed twice by PBS. PBMCs were then incubated in RPMI1640 […]
For healthy PBMCs, cells were stimulated with 20 ng/mL of IFN (+/- compounds or DMSO). For SSc PBMCs, cells were in basal conditions with no additional IFN stimulation. Cells were centrifuged at 300 g for 10 minutes. Supernatant was removed and subjected to R&D Systems DY266 Human CXCL10/IP-10 DuoSet ELISA (Biotechne) in duplicates, according to manufacturer’s guidance. Concentration of CXCL10 was determined according to a 4-parameter logistic regression standard curve. RNA was extracted from cell pellets using TRIzol™ (ThermoFisher Scientific, Waltham, MA) and processed using Quick-RNA Miniprep Kit (Zymo Research) as per the manufacturer’s instruction.
For Type I IFN signalling analysis, the human IFN I RT2 Profiler PCR Array (Qiagen, PAMM-016ZE) was performed on available RNA from healthy (n=3) and SSc (n=9) donors. RNA was converted to cDNA using RT2 First Strand Kit (Qiagen). Next, the cDNA was mixed with RT2 SYBR Green Mastermix (Qiagen, Venlo). Successful PCR performance was confirmed by assay tests for genomic DNA contamination, RNA sample quality, as well as single melt curve determination and <35 Ct for each gene, leading to validated gene expression of 67 genes. Relative expression for each gene was determined, firstly by ∆CT calculated using the geometric mean of 4 housekeeping genes (ACTB, GAPDH, HPRT1, RPLP0), followed by 2^(-∆CT), and expressed as fold change to control, according to manufacturer’s guidance. IFN2α-induced ISGs in healthy donors were determined using a Student’s t-test (two-tail distribution and equal variances) on the triplicate fold change in 2^(-ΔCT) values between […]
donors). Heatmaps were generated using the “pheatmap” function in R (v4.0.2) and RStudio (v1.3.1093) applying row scaling to standardise the expression data across samples (R core team 2020.
R Foundation for Statistical Computing). The IFN2α inducible genes determined in healthy donors […]
171-C. To account for Type I IFN signalling heterogeneity across samples, the mean 2^(-∆CT) for each […]
relative gene expression, illustrated as a fold change and visualised in log2. The Type I IFN signalling array data for the patient samples is included in Source Data Figure 6, Extended Data Fig. 9.

[3] = TUBE pull-down IFNAR1 blot densitometry, biological replicates 1-3

Structure (SMILES)	IFNAR1 cell surface levels (Fig. 5g) [1]	IFNAR1 cell surface levels [1]	IFNAR1 ubiquitylation [2]	Blot Mean, Background substracted [2, 3]	Fold Change ([2]; TUBE pull-down IFNAR1 blot densitometry, relative to DMSO = 1, biological replicates 1-3)
O=C(NC1CCNCC1)c1nn(C(=O)c2c(Cl)cccc2Cl)cc1NC(=O)c1c(Cl)cccc1Cl [JMS-175-2]	38.381 and 37.8977 and 40.435	reduction in IFNAR1 cell surface levels	elevated levels of IFNAR1 ubiquitylation	63.299 and 57.607 and 102.609	–
Cn1cc(NC(=O)c2c(Cl)cccc2Cl)c(C(=O)NC2CCN(C(=O)c3c(Cl)cccc3Cl)CC2)n1 [AP-5-145]	55.2385 and 54.5047 and 53.242	–	–	48.742 and 43.008 and 72.446	1.205 and 1.413 and 1.158
O=C(NC1C2CNCC21)c1nn(C(=O)c2c(Cl)cccc2Cl)cc1NC(=O)c1c(Cl)cccc1Cl (centres unmarked) [FX-171-C]	39.3476 and 40.435 and 39.71	reduction in IFNAR1 cell surface levels	elevated levels of IFNAR1 ubiquitylation	52.149 and 49.341 and 95.856	–
